Measured values taken from patent publication US11707474B2, “Methods for treating acute myeloid leukemia and related conditions” (GlycoMimetics, Inc., priority 2018, dated 2023).
Read-outs that look alike come from different tables or passages of the source.

Tests used:
[1] = tested on: human AML blasts; assay: Orthotopic model of human AML with cytarabine and DNR; format: in vivo, NOD-SCID mice
Method: The impact of a compound of Formula (I) on survival was evaluated in NOD-SCID mice in an orthotopic model of human AML in combination with cytarabine and DNR.
10 mg/kg per day was identified as the minimally active murine dose that augmented cytarabine and DNR survival benefits.

[2] = tested on: MLL-AF9 leukemic cells; assay: Surviving LSC after high dose cytarabine, limiting dilution transplantation; format: in vivo, mice; conditions: with high dose cytarabine (2 x 900 mg/kg)
Method: Wild-type mice were transplanted with MLL-AF9 leukemic cells and following engraftment, treated with high dose cytarabine (2 doses of 900 mg/kg at a 12-hour interval (1800 mg/kg total)) alone or in combination with a compound of Formula (I). Bone-marrow cells were harvested 24 hours after treatment and the surviving functional LSCs were quantified by limiting dilution transplantation assays in irradiated wild-type syngeneic recipients. The proportion of recipients who developed leukemia was used to calculate the number of surviving LSC by Poisson's distribution.

[3] = Radiation induced mucositis assay; format: in vivo, Mice (C57bl/6); conditions: 8.0 Gy whole body irradiation; 20 mg/kg IP BID 6 days
Method: Mice (C57bl/6) were subjected to whole body irradiation (8.0 Gy) and immediately afterwards treated with a compound of Formula (I) (20 mg/kg in saline, IP, BID (i.e. 40 mg/kg per day)) or saline alone (0.15 M NaCl) for 6 days. The small intestine was removed at day 6 and digested to release cells. The number of CD11b^+F4/80^+ macrophages from the small intestine was determined by flow cytometry (FIG. 2).

[4] = Exposure-response analysis for adverse events; format: in vivo, human; conditions: 53 R/R and 25 newly diagnosed older AML subjects, with chemotherapy
Method: For Example 15, Exposure-Response (“E-R”) analysis evaluating adverse events against PK metrics was conducted. The sample population for Example 15 included 53 subjects with relapsed/refractory (R/R) AML and 25 older subjects (aged 60 years or older) with newly diagnosed AML. R/R AML subjects were administered MEC chemotherapy and 5, 10, and 20 mg/kg of a compound of Formula (I) BID (i.e., 10, 20, and 40 mg/kg per day). The older subjects (aged 60 years or older) with newly diagnosed AML were administered 7+3 chemotherapy and 10 mg/kg of a compound of Formula (I) BID (i.e., 20 mg/kg per day).
Exposure metrics for the adverse events (“AE”) analysis were generated using the same Pop-PK model described in Example 14. […] Cumulative AUC was determined through each study day. For each metric/day combination, percentile rankings and normalized values were determined. For example, the median of Day 6 AUC values was determined, and normalized values were obtained by dividing each value by the median. In addition, these Day 6 AUC values were ranked, and then multiplied by 100% divided by the number of values to obtain a percentile value.
Adverse events (“AEs”) were classified according the Common Terminology Criteria for Adverse Events (“CTCAE”). […]

[5] = Pharmacokinetics of weight-based doses in AML subjects; format: in vivo, human; conditions: for AUC, Mean / AUC, Median: dose 13 to dose 15; for Cmax: human, plasma, intravenous
Method: Three cohorts of 6-7 human subjects with acute myeloid leukemia (AML) each received a total of 15 infusions of 5, 10, or 20 mg/kg/dose over 8 days with a nominal infusion duration of 20 minutes. The first dose of a compound of Formula (I), was administered 24 hours±1 hour prior to the first dose of MEC (mitoxantrone, etoposide, and cytarabine) induction chemotherapy as a sentinel dose to evaluate the effect of the compound of Formula (I) alone, and then every 12 hours±1 hour on chemotherapy days, starting 2 hours prior to chemotherapy. […] MEC chemotherapy was administered on Days 2-6. Samples were obtained pre-dose, on Day 1, Day 3, Day 8, Day 9, and Day 10 (where Day 1 refers to the first day of dosing with a compound of Formula (I)).

[6] = tested on: KG1 cells; assay: Static adhesion of KG1 cells to E-selectin coated plates; format: cell-based, human; conditions: added post-binding of 5-azacytidine treated KG1 cells
From the text: These findings indicate that hypomethylating agents, including 5-azacytidine, may increase the adhesion of leukemic blasts in the bone marrow and therefore hinder the intended anti-leukemic effect. This could explain a source of chemoresistance, and potential for relapse, in patients treated with hypomethylating agents.

Compound: CC[C@@H]1CC(C(=O)NCCNC(=O)CCOCCOCCOCCOCCOCCOCCOCCOCCOCCOCCOCCOC)C[C@@H](O[C@@H]2O[C@@H](CO)[C@H](O)C(O[C@@H](CC3CCCCC3)C(=O)O)C2NC(C)=O)C1OC1O[C@@H](C)C(O)[C@H](O)[C@@H]1O (stereo partly shown) [compound of Formula (I)]
- tumor cell chemosensitivity as determined by circulating leukemic cells ([1]; 5 mg/kg BID 10 days with cytarabine and DNR): marked enhancement of tumor cell chemosensitivity
- numbers of AML blasts vs cytarabine and DNR alone ([1]; 40 mg/kg with cytarabine and DNR): fewer numbers of AML blasts
- minimally active murine dose that augmented cytarabine and DNR survival benefits ([1]; with cytarabine and DNR): 10 mg/kg per day
- increase of sensitivity of LSC to cytarabine treatment [2]: approximately 20 fold
- CD11b+F4/80+ macrophages in small intestine [3]: decreased migration of inflammatory macrophages to the intestines
- adverse events vs exposure (AUC, cumulative AUC, Cmax) [4]: no strong tendency toward increased AEs, nor increased severity of AEs with exposure
- AUC, Mean ([5]; 5 mg/kg/dose): 5.21 µg·days/mL
- AUC, Median ([5]; 5 mg/kg/dose): 4.83 µg·days/mL
- AUC, Mean ([5]; 10 mg/kg/dose): 9.63 µg·days/mL
- AUC, Median ([5]; 10 mg/kg/dose): 9.63 µg·days/mL
- AUC, Mean ([5]; 20 mg/kg/dose): 20.43 µg·days/mL
- AUC, Median ([5]; 20 mg/kg/dose): 19.33 µg·days/mL
- Cmax ([5]; 5 mg/kg, 5 mg/kg/dose, read-out: Cmax, Mean): 38.5 µg/mL
- Cmax ([5]; 5 mg/kg, 5 mg/kg/dose, read-out: Cmax, Median): 36.3 µg/mL
- Cmax ([5]; 10 mg/kg, 10 mg/kg/dose, read-out: Cmax, Mean): 79.6 µg/mL
- Cmax ([5]; 10 mg/kg, 10 mg/kg/dose, read-out: Cmax, Median): 76.2 µg/mL
- Cmax ([5]; 20 mg/kg, 20 mg/kg/dose, read-out: Cmax, Mean): 167 µg/mL
- Cmax ([5]; 20 mg/kg, 20 mg/kg/dose, read-out: Cmax, Median): 153 µg/mL
- uncoupling of adhesion [6]: ~90%
